# Values of other authors in patent publication US20080241292A1, “COMPOSITION AND METHOD FOR WEIGHT LOSS” (IOMEDIX DEVELOPMENT INTERNATIONAL SRL, priority 2006, published 2008).
# Ends that are not written are not given here.
# What was measured:
# [1] = humans
# [2] = exogenous administration to humans
Molecule,satiety [1],food intake [2]
"Glucagon-like peptide-1 (HAEGTFTSDVSSYLEGQAAKEFIAWLVKGR; ends and bridges not checked; UniProt P01275 98-127, looked up) [GLP-1, satiety signal peptide]",increase satiety,
"Cholecystokinin (peptide, UniProt P06307 21-115, looked up, Cholecystokinin, satiety signal peptide secreted from intestinal cells in response to nutrients) Cholecystokinin: QPVPPADPAGSGLQRAEEAPRRQLRVSQRTDGESRAHLGALLARYIQQARKAPSGRMSIVKNLQNLDPSHRISDRDYMGWMDFGRRSAEEYEYPS",,reduction in food intake
